Key:
CYP24A1 = assay: RT-qPCR of CYP24A1 (24-hydroxylase), marker of calcitriol responsiveness; assay type: cell-based, human; settings: H305Q mutant, 10 nM calcitriol, ex vivo
Description: FIG. 3. […] (A) Control and HVDRR fibroblasts were treated with vehicle (0.1% ethanol) or 10 nM calcitriol for 6 hr. RT-qPCR assays were carried out for CYP24A1 a marker of calcitriol responsiveness. DM denotes double mutant with H305Q mutation in the VDR and BSCL2 mutation. […] Relative gene expression of UCP1 in WT and HVDRR fibroblasts differentiated with DIMR or DIMR plus 10 nM calcitriol for 14 days.
Real-time RT-PCR. […] RNA was isolated using RNeasy Plus Mini Kit (Qiagen, Valencia, Calif.). cDNA was prepared using Maxima Universal First Strand cDNA Synthesis kit (Fisher Scientific, Pittsburgh, Pa.). Real time PCR was performed using the DyNAmo ColorFlash qPCR kit (Fisher Scientific). Relative changes in mRNA expression were assessed by the 2-ΔΔC(T) method and normalized to that of the reference gene glyceraldehyde phosphate dehydrogenase (GAPDH). The values from vehicle treated normal control fibroblasts were set at 1. Assays were performed in triplicate.

[1] = test system: differentiated human fibroblasts; assay: Lipolysis assay (glycerol release); assay type: cell-based; settings: for increase in glycerol release compared to the undifferentiated cells: 10 μM isoproterenol 24 hrs
Description: Lipolysis assay. To measure lipolysis activity, control and differentiated fibroblasts, were starved in DMEM containing 1% FBS overnight. Cells were then incubated for 24 hrs in HBSS (Hank's balanced salt solution) containing 2% fatty-acid-free BSA and 10 μM isoproterenol. The culture medium was collected for glycerol measurement using the free glycerol reagent (Sigma, St. Louis, Mo.).

Row | Compound | induction of 24-hydroxylase (CYP24A1) expression by VDR (CYP24A1) | induction of lipolysis compared to the H305Q single mutant ([1]; H305Q/BSCL2 double mutant) | increase in glycerol release compared to the undifferentiated cells ([1]; HVDRR cells differentiated with DIMR) | increase in glycerol release compared to the undifferentiated cells ([1]; WT control cells differentiated with DIMR) [fold]
1 | C=C1/C(=C\C=C2/CCC[C@]3(C)[C@@H]([C@H](C)CCCC(C)(C)O)CC[C@@H]23)C[C@@H](O)C[C@@H]1O [calcitriol] | rescues the induction |  |  | 
2 | CC(C)NCC(O)c1ccc(O)c(O)c1 (stereo not shown) [isoproterenol] |  | significantly less induction of lipolysis | 1.5-4 fold | 2.5

From patent US9423404B1, “Method of screening for an agent that enhances beige fat adipogenesis” (The Board of Trustees of the Leland Stanford Junior …, priority 2013, dated 2016)
